In this assay the target is human 5HT2c receptor (VSV Isoform) (Homo sapiens, UniProt P28335, I156V/I160V/N158S). The experiment in a line: cell-based. The settings on record: 5-HT2c EC50 (hVSV, μM).
Chain of human 5HT2c receptor (VSV Isoform) (P28335 33-458 I156V/N158S/I160V limits assumed): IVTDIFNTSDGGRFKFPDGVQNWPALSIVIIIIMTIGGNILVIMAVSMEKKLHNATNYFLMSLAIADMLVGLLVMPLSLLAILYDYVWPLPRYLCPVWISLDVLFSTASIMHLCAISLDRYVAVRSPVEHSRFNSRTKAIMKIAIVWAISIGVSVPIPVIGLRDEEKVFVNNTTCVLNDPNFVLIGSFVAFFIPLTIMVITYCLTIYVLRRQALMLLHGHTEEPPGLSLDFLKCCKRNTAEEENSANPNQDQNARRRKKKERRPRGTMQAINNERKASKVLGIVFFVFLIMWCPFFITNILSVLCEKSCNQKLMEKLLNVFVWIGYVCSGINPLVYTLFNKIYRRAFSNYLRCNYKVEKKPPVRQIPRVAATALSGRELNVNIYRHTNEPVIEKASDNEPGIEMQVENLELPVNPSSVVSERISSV

Regarding `COc1ccc2c(c1)C1CNCC1C2C` (single isomer, unassigned) [1, Enantiomer 2], the EC50 (as a rule, the concentration needed to bring the measured effect to its halfway point) is under 1 µM.
The same measure for `CC1c2ccc(O)cc2C2CNCC12` (single isomer, unassigned) [2, Enantiomer 1]: under 1 µM; for `CC1c2ccc(O)cc2C2CNCC12` (single isomer, unassigned) [2, Enantiomer 2]: under 0.1 µM.
Then `COc1cc2c(cc1Cl)C(C)C1CNCC21` (single isomer, unassigned) [3, Enantiomer 2], with under 0.1 µM; and `CC1c2cc(Cl)c(O)cc2C2CNCC12` (single isomer, unassigned) [4, Enantiomer 2], with under 0.1 µM.
In turn, `CC1c2cc(Cl)ccc2C2CNCC12` (single isomer, unassigned) [5, Enantiomer 1] had an EC50 of under 1 µM.
The same measure for `CC1c2cc(Cl)c(OCc3ccc(F)cc3)cc2C2CNCC12` (single isomer, unassigned) [6, Enantiomer 2]: under 1 µM.
As for `Cc1ccc2c(c1)C(C)C1CNCC21` (single isomer, unassigned) [15, Enantiomer 1], the EC50 is under 0.1 µM.
The same measure for `Cc1ccc2c(c1)C(C)C1CNCC21` (single isomer, unassigned) [15, Enantiomer 2]: under 1 µM; for `Cc1cc2c(cc1Cl)C(C)C1CNCC21` (single isomer, unassigned) [21, Enantiomer 1]: under 1 µM.
Then `Cc1cc2c(cc1Cl)C(C)C1CNCC21` (single isomer, unassigned) [21, Enantiomer 2], with under 0.1 µM; and `Cc1cc2c(cc1Cl)C1CNCC1C2C` (single isomer, unassigned) [23, Enantiomer 1], with under 1 µM.
Then `Cc1cc2c(cc1Cl)C1CNCC1C2C` (single isomer, unassigned) [23, Enantiomer 2], with under 0.1 µM; and `COc1ccc2c(c1Cl)C1CNCC1C2C` (single isomer, unassigned) [25, Enantiomer 2], with under 1 µM.
As to `CC1c2cc(Cl)c(Cl)cc2C2CNCC12` (single isomer, unassigned) [26, Enantiomer 1], the EC50 is under 1 µM.
For the molecule `CC1c2cc(Cl)c(Cl)cc2C2CNCC12` (single isomer, unassigned) [26, Enantiomer 2], the EC50 is under 0.1 µM.
In turn, `CC1c2c(ccc(Cl)c2Cl)C2CNCC12` (single isomer, unassigned) [27, Enantiomer 1] displayed an EC50 of under 1 µM.
For `CC1c2c(ccc(Cl)c2Cl)C2CNCC12` (single isomer, unassigned) [27, Enantiomer 2], the EC50 is under 0.1 µM.
The same measure for `CCOc1cc2c(cc1Cl)C(C)C1CNCC21` (single isomer, unassigned) [29, Enantiomer 2]: under 0.1 µM.
For `COc1cc2c(cc1Br)C(C)C1CNCC21` (single isomer, unassigned) [30, Enantiomer 2], the EC50 was under 0.01 µM.
The same measure for `CC1c2cc(Br)c(O)cc2C2CNCC12` (single isomer, unassigned) [31, Enantiomer 2]: under 0.1 µM; for `COc1cc2c(cc1-c1cccs1)C(C)C1CNCC21` (single isomer, unassigned) [32, Enantiomer 2]: over 10 µM.
The same measure for `COc1cc2c(cc1C#N)C(C)C1CNCC21` (single isomer, unassigned) [33, Enantiomer 2]: under 1 µM; for `COc1ccc2c(c1OC)C1CNCC1C2C` (single isomer, unassigned) [34, Enantiomer 1]: under 1 µM.
Then `COc1c(Cl)cc2c(c1OC)C1CNCC1C2C` (single isomer, unassigned) [35, Enantiomer 1], with under 0.1 µM; and `COc1cc2c(cc1OC)C1CNCC1C2C` (single isomer, unassigned) [36, Enantiomer 1], with over 10 µM.
As to `COc1cc2c(cc1OC)C1CNCC1C2C` (single isomer, unassigned) [36, Enantiomer 2], the EC50 is under 1 µM.
Then `COc1cc2c(cc1Cl)CC1CNCC21` (single isomer, unassigned) [37, Enantiomer 1], with under 0.1 µM; and `COc1c(Cl)cc2c(c1Cl)C1CNCC1C2C` (single isomer, unassigned) [38, Enantiomer 1], with under 1 µM.
For `COc1c(Cl)cc2c(c1Cl)C1CNCC1C2C` (single isomer, unassigned) [38, Enantiomer 2], the EC50 is under 0.1 µM.
`CC1c2ccc(Cl)c(Cl)c2C2CNCC12` (single isomer, unassigned) [41, Enantiomer 1] registered an EC50 of under 1 µM.
For `CC1c2ccc(Cl)c(Cl)c2C2CNCC12` (single isomer, unassigned) [41, Enantiomer 2], the EC50 is under 10 µM.
Regarding `CC1c2c(ccc(Cl)c2F)C2CNCC12` (single isomer, unassigned) [42, Enantiomer 1], the EC50 is under 10 µM.
With `CC1c2c(ccc(Cl)c2F)C2CNCC12` (single isomer, unassigned) [42, Enantiomer 2], the EC50 is under 0.1 µM.
The same measure for `CC1c2ccc(OCc3ccccc3)cc2C2CNCC12` (single isomer, unassigned) [43, Enantiomer 2]: under 10 µM; for `CC1c2ccc(OCc3ccccc3F)cc2C2CNCC12` (single isomer, unassigned) [44, Enantiomer 2]: under 10 µM.
The same measure for `CC1c2ccc(OCc3cccc(F)c3)cc2C2CNCC12` (single isomer, unassigned) [45, Enantiomer 2]: under 10 µM; for `CC1c2ccc(OCc3ccc(F)cc3)cc2C2CNCC12` (single isomer, unassigned) [46, Enantiomer 2]: under 10 µM; for `CC1c2ccc(-c3c(F)cccc3F)cc2C2CNCC12` (single isomer, unassigned) [47, Enantiomer 2]: over 10 µM.
Then `COc1ccc2c(c1)C1CNCC1C2C` (stereo not shown) [Example 1, 5-Methoxy-8-methyl-1,2,3,3a,8,8a-hexahydroindeno[1,2-c]pyrrole], with over 10 µM.
Molecule `CC1c2ccc(O)cc2C2CNCC12` (stereo not shown) [Example 2, 5-Hydroxy-8-methyl-1,2,3,3a,8,8a-hexahydroindeno[1,2-c]pyrrole] gave a half-maximal effective concentration (EC50) of under 0.1 µM.
Molecule `COc1cc2c(cc1Cl)C(C)C1CNCC21` (stereo not shown) [Example 3, 5-Methoxy-6-chloro-8-methyl-1,2,3,3a,8,8a-hexahydroindeno[1,2-c]pyrrole] yielded an EC50 of under 0.1 µM.
The same measure for `CC1c2cc(Cl)c(O)cc2C2CNCC12` (stereo not shown) [Example 4, 5-Hydroxy-6-chloro-8-methyl-1,2,3,3a,8,8a-hexahydroindeno[1,2-c]pyrrole]: under 1 µM; for `CC1c2cc(Cl)ccc2C2CNCC12` (stereo not shown) [Example 5, 6-Chloro-8-methyl-1,2,3,3a,8,8a-hexahydroindeno[1,2-c]pyrrole]: under 0.1 µM; for `CC1c2cc(Cl)c(OCc3ccc(F)cc3)cc2C2CNCC12` (stereo not shown) [Example 6, 5-(4-Fluorobenzyloxy)-6-chloro-8-methyl-1,2,3,3a,8,8a-hexahydroindeno[1,2-c]pyrrole]: under 1 µM.
`CC1c2cc(Cl)c(OCc3ccccc3)cc2C2CNCC12` (stereo not shown) [Example 7, 5-Benzyloxy-6-chloro-8-methyl-1,2,3,3a,8,8a-hexahydroindeno[1,2-c]pyrrole] had an EC50 of under 10 µM.
Then `CC1c2cc(Cl)c(OCc3ccccc3F)cc2C2CNCC12` (stereo not shown) [Example 8, 5-(2-Fluorobenzyloxy)-6-chloro-8-methyl-1,2,3,3a,8,8a-hexahydroindeno[1,2-c]pyrrole], with under 10 µM; and `CC1c2cc(Cl)c(OCc3cccc(F)c3)cc2C2CNCC12` (stereo not shown) [Example 9, 5-(3-Fluorobenzyloxy)-6-chloro-8-methyl-1,2,3,3a,8,8a-hexahydroindeno[1,2-c]pyrrole], with under 10 µM; and `c1ccc2c(c1)CC1CNCC21` (stereo not shown) [Example 10, 1,2,3,3a,8,8a-Hexahydroindeno[1,2-c]pyrrole], with under 10 µM.
Then `Clc1ccc2c(c1)CC1CNCC21` (stereo not shown) [Example 11, 6-Chloro-1,2,3,3a,8,8a-hexahydroindeno[1,2-c]pyrrole], with under 0.1 µM.
Take `Fc1cccc(F)c1-c1ccc2c(c1)CC1CNCC21` (stereo not shown) [Example 12, 6-(2,6-Difluorophenyl)-1,2,3,3a,8,8a-hexahydroindeno[1,2-c]pyrrole]: the EC50 is over 10 µM.
The same measure for `Cc1ccc2c(c1)C1CNCC1C2C` (stereo not shown) [Example 13, 5-Methyl-8-methyl-1,2,3,3a,8,8a-hexahydroindeno[1,2-c]pyrrole]: under 1 µM; for `Cc1cccc2c1C1CNCC1C2C` (stereo not shown) [Example 14, 4-Methyl-8-methyl-1,2,3,3a,8,8a-hexahydroindeno[1,2-c]pyrrole]: under 1 µM; for `Cc1ccc2c(c1)C(C)C1CNCC21` (stereo not shown) [Example 15, 6-Methyl-8-methyl-1,2,3,3a,8,8a-hexahydroindeno[1,2-c]pyrrole]: under 1 µM.
In turn, `Cc1cccc2c1C(C)C1CNCC21` (stereo not shown) [Example 16, 7-Methyl-8-methyl-1,2,3,3a,8,8a-hexahydroindeno[1,2-c]pyrrole] registered an EC50 of under 1 µM.
`CC1c2cccc(F)c2C2CNCC12` (stereo not shown) [Example 17, 4-Fluoro-8-methyl-1,2,3,3a,8,8a-hexahydroindeno[1,2-c]pyrrole]: the EC50 was under 10 µM.
Then `CC1c2ccc(F)cc2C2CNCC12` (stereo not shown) [Example 18, 5-Fluoro-8-methyl-1,2,3,3a,8,8a-hexahydroindeno[1,2-c]pyrrole], with under 1 µM; and `CC1c2cc(F)ccc2C2CNCC12` (stereo not shown) [Example 19, 6-Fluoro-8-methyl-1,2,3,3a,8,8a-hexahydroindeno[1,2-c]pyrrole], with under 1 µM; and `CC1c2ccc(Cl)cc2C2CNCC12` (stereo not shown) [Example 20, 5-Chloro-8-methyl-1,2,3,3a,8,8a-hexahydroindeno[1,2-c]pyrrole], with under 10 µM.
`Cc1cc2c(cc1Cl)C(C)C1CNCC21` (stereo not shown) [Example 21, 5-Methyl-6-chloro-8-methyl-1,2,3,3a,8,8a-hexahydroindeno[1,2-c]pyrrole] had an EC50 of under 0.1 µM.
`Cc1cc2c(cc1Br)C(C)C1CNCC21` (stereo not shown) [Example 22, 5-Methyl-6-bromo-8-methyl-1,2,3,3a,8,8a-hexahydroindeno[1,2-c]pyrrole] yielded an EC50 of under 1 µM.

Values taken from patent US8716324B2, “Tricyclic indeno-pyrrole derivatives as serotonin receptor modulators” (Athersys, Inc., priority 2004, dated 2014).
